# Experimental data from ChEMBL document CHEMBL4673347, “Discovery of new thieno[2,3-d]pyrimidine and thiazolo[5,4-d]pyrimidine derivatives as orally active phosphoinositide 3-kinase inhibitors” (Bioorg Med Chem, 2021).
# The source made the active and inactive calls. The calls are words filed in the database; no cut-off is given here.
# Key:
# NCI-H292 = experiment: Antiproliferative activity against human NCI-H292 cells assessed as reduction in cell viability incubated for 72 hrs measured after 4 hrs of MTT addition by MTT assay; type: functional, cell-based
# HGC-27 [1] = experiment: Inhibition of PI3K signalling in human HGC-27 cells assessed as reduction in S6RP S235/236 phosphorylation incubated for 3 hrs by Western blot analysis; type: cell-based; settings: dose 20-1000 nM
# HGC-27 [2] = experiment: Induction of apoptosis in human HGC-27 cells assessed as necrotic cells at 500 nM incubated for 24 hrs by annexin V-FITC and propidium iodide based staining based flow cytometry analysis (reference value: 1.95 %); type: functional
# SGC-7901 = experiment: Antiproliferative activity against human SGC-7901 cells assessed as reduction in cell viability incubated for 72 hrs measured after 4 hrs of MTT addition by MTT assay; type: functional, cell-based
# SNU-638 = experiment: Antiproliferative activity against human SNU-638 cells assessed as reduction in cell viability incubated for 72 hrs measured after 4 hrs of MTT addition by MTT assay; type: functional, cell-based
# A549 = experiment: Antiproliferative activity against human A549 cells assessed as reduction in cell viability incubated for 72 hrs measured after 4 hrs of MTT addition by MTT assay; type: functional, cell-based
# MG-63 = experiment: Antiproliferative activity against human MG-63 cells assessed as reduction in cell viability incubated for 72 hrs measured after 4 hrs of MTT addition by MTT assay; type: functional, cell-based
# [3] = Apparent permeability across basolateral to apical side in human Caco-2 cells; type: ADME, cell-based
# [4] = Half life in ICR mouse at 4 mg/kg, iv measured upto 24 hrs by LC-MS/MS analysis; type: ADME, organism-based; settings: in vivo
# [5] = Half life in ICR mouse at 40 mg/kg, po measured upto 24 hrs by LC-MS/MS analysis; type: ADME, organism-based; settings: in vivo
# HGC-27 [6] = experiment: Antitumor activity against human HGC-27 cells xenografted in BALB/c mouse assessed as tumor growth inhibition administered orally for 25 days and measured on day 25; type: functional; settings: time 25.0 day
# HGC-27 [7] = experiment: Antitumor activity against human HGC-27 cells xenografted in BALB/c mouse assessed as tumor growth inhibition at 20 mg/kg, po administered for 25 days and measured on day 25 relative to control; type: functional; settings: HGC-27, po, 600 h, time 25 day, read-out: TGI
# HGC-27 [8] = experiment: Antitumor activity against human HGC-27 cells xenografted in BALB/c mouse assessed as reduction in Ki67 expression at 20 to 40 mg/kg, po administered for 25 days and measured on day 25 by […] immunohistochemistry; type: functional, organism-based; settings: dose 20-40 mg/kg, time 25.0 day
# [9] = Toxicity in BALB/c mouse xenografted with human HGC-27 cells assessed as body weight reduction at 40 mg/kg, po administered for 25 days and measured on day 25; type: organism-based; parameters: scale not given: the % may be the effect or the level left; settings: in vivo, 600 h, time 25 day
compound,measurement,setting,value
COc1ncc(-c2nc3c(N4CCOCC4)ncnc3s2)cc1NS(=O)(=O)c1ccc(F)cc1F,IC50,NCI-H292,0.32 µM
same,inhibition,HGC-27 [1],Dose-dependent effect
same,Activity,HGC-27 [2],0.23%
same,IC50,SGC-7901,0.64 µM
same,IC50,SNU-638,0.69 µM
same,IC50,A549,0.62 µM
same,IC50,MG-63,0.36 µM
same,Papp B→A,[3],43.4 ×10⁻⁶ cm/s
same,half-life,[4],2.25 h
same,half-life,[5],6.3 h
same,TGI,HGC-27 [6],Dose-dependent effect
same,inhibition in vivo at 20 mg/kg,HGC-27 [7],75.5%
same,inhibition,HGC-27 [8],Active
same,Activity,[9],14.8%
COc1ncc(-c2cc3c(N4CCOCC4)ncnc3s2)cc1NS(=O)(=O)c1ccc(F)cc1F,IC50,NCI-H292,2.7 µM
same,inhibition,HGC-27 [1],Dose-dependent effect
same,Activity,HGC-27 [2],0.26%
same,IC50,SGC-7901,5.2 µM
same,IC50,SNU-638,2.4 µM
same,IC50,A549,7.8 µM
same,IC50,MG-63,7 µM
same,Papp B→A,[3],37.6 ×10⁻⁶ cm/s
same,half-life,[4],1.36 h
same,half-life,[5],13.7 h
same,inhibition,HGC-27 [8],Active
